No end group written: not given here.
Assays:
human Nav1.7 = target: T1, human Nav1.7 (Homo sapiens, UniProt Q15858, W1161R); assay type: cell-based
T1 construct: expressed in transfected cells

human Nav1.6 = target: T2, human Nav1.6 (Homo sapiens, UniProt Q9UQD0); assay type: cell-based
T2 construct: expressed in transfected cells

C57Bl/6 mice = assay: CFA model of inflammatory pain, thermal hyperalgesia (Hargreaves test); assay type: in vivo; settings: for Thermal MPE %: CFA model, mice, mean±s.e.m. (n)
Protocol: Male C57Bl/6 mice (24-26 g), ordered from Charles River and housed individually, were used for this study.
This box consists of a chamber with a raised glass floor maintained at a constant temperature (27° C.). The thermal nociceptive stimulus originates from a projection bulb light beam below the glass surface. The light beam is aimed at the area between toris (center plantar). The “start” button will turn on the light and start the timer. Movements (such as a sudden withdrawal) of the stimulated paw will trigger the switch to turn off the light and stop the timer. […] If no movement occurs, the bulb will be turned off after 20 seconds (cutoff) to prevent tissue injury. The animals were allowed to habituate on the glass surface for 30-60 minutes before PWL measurement.
Percent maximum possible effect (MPE %)=(T1−T0)/(Tc−T0)×100%. T0: threshold on day0 (post-CFA, pre-pump); T1: threshold on day1 post pump implantation; Tc: cut-off of the test (20 s for the Hargreaves test and 2 g for the Von Frey test)
Animals were anesthetized with isoflurane (4% induction and 2% maintenance) and 20 μL of 100% Complete Freund's Adjuvant (CFA; Sigma-Aldrich; Saint Louis, Mo.) was injected into the center plantar area on one hind paw using a 27 gauge needle attached to a 50 μL Hamilton syringe. Carrageenan model: Animals were anesthetized with isoflurane (4% induction and 2% maintenance) and 25 μL of 2% A-carrageenan (Sigma-Aldrich; Saint Louis, Mo.) dissolved in normal saline was injected into the center plantar area on hind paws using an insulin syringe (BD; Franklin Lakes, N.J.).
Alzet micro-osmotic mini pumps (Durect Corporation Model 1003D and 2001D) were filled and primed per manufacturer's guide. Mice were anesthetized with isoflurane (5% induction; 2% maintenance). Their backs were shaved, wiped down with isopropyl alcohol and povidone iodine, and a small incision was made between the scapulae. Using a pair of forceps or hemostat, a small pocket was formed by spreading the subcutaneous connective tissues apart. The pump was inserted into the pocket with the flow moderator pointing away from the incision. The skin incision was then closed using 7 mm staples and the animals were allowed to recover in their home cages.
Data are represented as mean±s.e.m. Prism (Graphpad Software Inc., La Jolla, Calif.) was used for graphing and statistical analysis. For comparison of threshold values over time, a two-way ANOVA followed by Bonferroni's multiple comparison test was used with a significance level of p<0.05. Hotplate and MPE % data were analyzed by one-way ANOVA followed by Bonferroni's multiple comparison test.

[1] = 684 and 1824 μg/day, subcutaneous osmotic mini-pump
[2] = 228 μg/day/mouse by subcutaneous osmotic mini-pump
[3] = 1824 μg/day/mouse by subcutaneous osmotic mini-pump

T2 sequence (Q9UQD0 whole entry): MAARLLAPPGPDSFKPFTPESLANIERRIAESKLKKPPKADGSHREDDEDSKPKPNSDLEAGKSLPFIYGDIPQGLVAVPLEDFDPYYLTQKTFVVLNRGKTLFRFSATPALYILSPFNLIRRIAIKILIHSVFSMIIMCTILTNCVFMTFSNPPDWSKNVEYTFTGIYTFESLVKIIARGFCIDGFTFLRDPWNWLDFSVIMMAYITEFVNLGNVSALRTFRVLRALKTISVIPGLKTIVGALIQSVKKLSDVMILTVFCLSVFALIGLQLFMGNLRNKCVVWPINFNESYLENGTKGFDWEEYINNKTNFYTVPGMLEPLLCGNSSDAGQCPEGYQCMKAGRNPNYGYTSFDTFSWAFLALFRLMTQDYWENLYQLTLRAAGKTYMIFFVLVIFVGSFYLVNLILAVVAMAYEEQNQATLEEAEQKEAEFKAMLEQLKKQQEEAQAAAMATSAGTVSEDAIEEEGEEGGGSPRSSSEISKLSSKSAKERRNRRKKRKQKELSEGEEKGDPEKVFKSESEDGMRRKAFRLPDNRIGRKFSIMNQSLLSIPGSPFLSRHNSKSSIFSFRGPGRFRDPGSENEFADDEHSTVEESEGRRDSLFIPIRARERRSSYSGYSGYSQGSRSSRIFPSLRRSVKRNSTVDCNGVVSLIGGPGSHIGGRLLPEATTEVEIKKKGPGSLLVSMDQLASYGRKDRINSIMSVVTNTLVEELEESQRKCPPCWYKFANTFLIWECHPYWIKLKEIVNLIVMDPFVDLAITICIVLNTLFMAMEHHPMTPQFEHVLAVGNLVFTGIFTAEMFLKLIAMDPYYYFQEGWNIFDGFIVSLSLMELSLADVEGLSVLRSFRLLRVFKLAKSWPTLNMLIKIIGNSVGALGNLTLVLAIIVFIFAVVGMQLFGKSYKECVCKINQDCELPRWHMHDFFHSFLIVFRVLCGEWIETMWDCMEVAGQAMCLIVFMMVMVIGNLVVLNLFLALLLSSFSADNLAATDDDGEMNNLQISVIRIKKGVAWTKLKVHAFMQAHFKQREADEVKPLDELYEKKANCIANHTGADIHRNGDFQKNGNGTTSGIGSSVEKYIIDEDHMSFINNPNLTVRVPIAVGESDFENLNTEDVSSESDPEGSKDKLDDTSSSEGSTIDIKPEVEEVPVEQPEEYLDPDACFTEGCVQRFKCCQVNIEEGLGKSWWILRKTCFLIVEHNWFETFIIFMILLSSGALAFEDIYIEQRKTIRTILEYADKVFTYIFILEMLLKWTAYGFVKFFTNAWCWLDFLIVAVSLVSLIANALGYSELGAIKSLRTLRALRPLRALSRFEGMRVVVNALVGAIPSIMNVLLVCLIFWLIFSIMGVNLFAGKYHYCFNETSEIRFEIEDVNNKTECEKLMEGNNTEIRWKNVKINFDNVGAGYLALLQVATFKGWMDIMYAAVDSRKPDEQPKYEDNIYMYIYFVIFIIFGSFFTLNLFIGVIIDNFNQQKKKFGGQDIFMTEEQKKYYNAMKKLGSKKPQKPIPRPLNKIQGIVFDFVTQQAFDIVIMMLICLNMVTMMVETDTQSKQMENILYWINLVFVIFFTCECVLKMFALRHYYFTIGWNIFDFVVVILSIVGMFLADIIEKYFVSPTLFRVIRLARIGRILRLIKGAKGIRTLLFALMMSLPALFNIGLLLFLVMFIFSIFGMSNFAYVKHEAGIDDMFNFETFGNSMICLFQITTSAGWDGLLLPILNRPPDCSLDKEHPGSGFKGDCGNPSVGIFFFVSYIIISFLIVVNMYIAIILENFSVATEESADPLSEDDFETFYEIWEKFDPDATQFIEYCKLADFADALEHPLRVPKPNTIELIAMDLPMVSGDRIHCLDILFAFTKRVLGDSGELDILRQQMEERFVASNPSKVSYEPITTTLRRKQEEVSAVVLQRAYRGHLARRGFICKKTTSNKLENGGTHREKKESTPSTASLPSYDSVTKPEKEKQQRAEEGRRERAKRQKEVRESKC

Row | Substance | IC50 (human Nav1.7) | selectivity for Nav1.7 compared to recombinant Protoxin-II (human Nav1.6) | also measured
1 | GPCCNCSSKWCRDHSRCCGRGSAPAPAPAPAPAPAPAPAPAPGSQCQKWMQTCDRERKCCEGFVCTLWCRKKLW [NV1D3793] | 64.6 nM | – | –
2 | GPQCQKWMQTCDRERKCCEGFVCTLWCRKKLW-NH2 [NV1D3034-NH2] | – | improved selectivity | –
3 | GPQCQKWMQTCDRTRKCCEGFVCTLWCRKKLW-OH (cysteine pairing not given here) [NV1D3368] | – | improved selectivity | reversal of CFA-induced thermal hyperalgesia (C57Bl/6 mice; [1]): fully reversed; Thermal MPE % (C57Bl/6 mice; [2]): 23 ± 8 (7) %; Thermal MPE % (C57Bl/6 mice; [3]): 47 ± 6 (8) %
4 | GPCRTIGPSVCAPAPAPAPAPAPAPAPAPAPQCQKWMQTCDRERKCCEGFVCTLWCRKKLW [NV1D3832] | 88.4 nM | – | –
5 | GPQCQKWMQTCDRTRKCCEGFVCTLWCRKKLW-NH2 [NV1D3368-NH2] | – | improved selectivity | Thermal MPE % (C57Bl/6 mice; [2]): 27 ± 4 (4) %; Thermal MPE % (C57Bl/6 mice; [3]): 55 ± 15 (6) %; reversal of CFA-induced thermal hyperalgesia (C57Bl/6 mice; dose not given): readily reversed
6 | GPCCNCSSKWCRDHSRCCGSAPAPAPAPAPAPAPAPAPAPGSQCQKWMQTCDRERKCCEGFVCTLWCRKKLW [NV1D3795] | 100 nM | – | –
7 | GPACQKWMQTCDANRKCCEGFSCRLWCKKKLW-OH (cysteine pairing not given here) [NV1D3587] | – | improved selectivity | –
8 | GPCCNCSSKWCRDHSRCCGRGSAPAPAPAPAPGSQCQKWMQTCDAERKCCEGFVCRLWCKKKLW [NV1D3256] | 55.7 nM | – | –
9 | GPQCQKWMQTCDARRKCCEGFVCRLWCKKKLW-OH (cysteine pairing not given here) [NV1D3006] | – | improved selectivity | –
10 | GPQCQKWMQTCDRERKCCEGFVCTLWCRKKLWGSGGGGSAPAPAPAPAPAPAPAPAPAPGGGGSGSCCNCSSKWCRDHSRCC [NV1D3829] | 122 nM | – | –
11 | GPQCQKWMQTCDAERKCCEGFSCTLWCKKKLW-NH2 [NV1D2974-NH2] | – | improved selectivity | –
12 | GPCCNCSSKWCRDHSRCCGSAPAPAPAPAPGSQCQKWMQTCDRERKCCEGFVCTLWCRKKLW [NV1D3796] | 110 nM | – | –
13 | GPQCQKWMQTCDAERKCCEGFVCRLWCKKKLWGSAPAPAPAPAPAPAPAPAPAPGSCCNCSSKWCRDHSRCCGR [NV1D3259] | 54.9 nM | – | –
14 | GPQCQKWMQTCDRERKCCEGFVCTLWCRKKLWGGGGSAPAPAPAPAPAPAPAPAPAPAPAPAPAPAPGGGGSGWCGDPGATCGKLRLYCCSGFCDAYTKTCKDKSSA [NV1D3825] | 194 nM | – | –
15 | GPQCQKWMQSCDRERKCCEGFVCTLWCRKKLW-OH (cysteine pairing not given here) [NV1D3359] | – | improved selectivity | –
16 | GPCCNCSSKWCRDHSRCCGSAPAPAPAPAPAPAPAPAPAPGSQCQKWMQTCDAERKCCEGFVCRLWCKKKLW [NV1D3262] | 89.2 nM | – | –
17 | GPQCQKWMQTCDAERKCCEGFVCRLWCKKKLW-NH2 [NV1D2775-NH2] | – | improved selectivity | –
18 | GPYCQKWMQTCDANRKCCEGFSCRLWCKKKLW-NH2 [NV1D3586-NH2] | – | improved selectivity | –
19 | GPQCQKWMQTCDRERKCCEGFVCTLWCRKKLWGSAPAPAPAPAPAPAPAPAPAPGSCCNCSSKWCRDHSRCC [NV1D3797] | 91.1 nM | – | –
20 | GPGWCGDPGATCGKLRLYCCSGFCDSYTKTCKDKSSAGGGGSAPAPAPAPAPAPAPAPAPAPAPAPAPAPAPGGGGSQCQKWMQTCDRERKCCEGFVCTLWCRKKLW [NV1D3822] | 74.2 nM | – | –

Row | Substance | IC50 (human Nav1.7) | selectivity for Nav1.7 compared to recombinant Protoxin-II (human Nav1.6) | also measured
21 | GPQCQKWMQTCDRERKCCEGFVCTLWCRKKLW-NH-methyl [NV1D3034-NH-methyl] | – | improved selectivity | Thermal MPE % (C57Bl/6 mice; [3]): 49 ± 17 (6) %; reversal of CFA-induced thermal hyperalgesia (C57Bl/6 mice; dose not given): readily reversed
22 | GPCCNCSSKWCRDHSRCCGRGSAPAPAPAPAPAPAPAPAPAPGSQCQKWMQTCDAERKCCEGFVCRLWCKKKLW [NV1D3260] | 57.6 nM | – | –
23 | GPYCQKWMQTCDANRKCCEGFSCRLWCKKKLW-OH (cysteine pairing not given here) [NV1D3586] | – | improved selectivity | –
24 | GPSHSNTQTLAKAPEHTGAPAPAPAPAPAPAPAPAPAPQCQKWMQTCDRERKCCEGFVCTLWCRKKLW [NV1D3774] | 88.6 nM | – | –
25 | Ac-QCQKWMQTCDAERKCCEGFSCTLWCKKKLW-NH2 [(-GP) N-Ac-NV1D2974-NH2] | – | improved selectivity | –
26 | GPQCQKWMQTCDRERKCCEGFVCTLWCRKKLW-OH (cysteine pairing not given here) [NV1D3034] | – | – | reversal of CFA-induced thermal hyperalgesia (C57Bl/6 mice; [1]): completely reversed; Thermal MPE % (C57Bl/6 mice; [2]): 22 ± 6 (6) %; Thermal MPE % (C57Bl/6 mice; [3]): 50 ± 6 (8) %
27 | GPQCQKWMQTCDRERKCCEGFVCTLWCRKKLWGSAPAPAPAPAPAPAPAPAPAPGSCCNCSSKWCRDHSRCCGR [NV1D3798] | 94.5 nM | – | –
28 | GPQCQKWMQTCDRERKCCEGFVCTLWCRKKLWGSAPAPAPAPAPGSCCNCSSKWCRDHSRCC [NV1D3799] | 50.6 nM | – | –
29 | Ac-QCQKWMQTCDRERKCCEGFVCTLWCRKKLW-NH2 [(-GP) N-Ac-NV1D3034-NH2] | – | improved selectivity | –
30 | GPGWCGDPGATCGKLRLYCCSGFCDAYTKTCKDKSSAGGGGSAPAPAPAPAPAPAPAPAPAPAPAPAPAPAPGGGGSQCQKWMQTCDRERKCCEGFVCTLWCRKKLW [NV1D3824] | 110 nM | – | –
31 | GPQCQKWMQTCDRERKCCEGFVCTLWCRKKLWGSGGGGSAPAPAPAPAPAPAPAPAPAPGGGGSGSCCNCSSKWCRDHSRCCGR [NV1D3828] | 87.5 nM | – | –
32 | GPQCQKWMQTCDRNRKCCEGFVCTLWCRKKLW-OH (cysteine pairing not given here) [NV1D3044] | – | improved selectivity | –
33 | GPCCNCSSKWCRDHSRCCGRGSGGGGSAPAPAPAPAPAPAPAPAPAPGGGGSGSQCQKWMQTCDRERKCCEGFVCTLWCRKKLW [NV1D3830] | 88.6 nM | – | –
34 | GPQCQKWMQTCDRERKCCEGFVCTLWCRKKLWGSAPAPAPAPAPGSCCNCSSKWCRDHSRCCGR [NV1D3800] | 60.9 nM | – | –
35 | GPQCQKWMQTCDAERKCCEGFSCTLWCKKKLW-OH (cysteine pairing not given here) [NV1D2974] | – | improved selectivity | –
36 | GPQCQKWMQTCDRERKCCEGFVCTLWCRKKLW-NH-butyl [NV1D3034-NH-butyl] | – | improved selectivity | –
37 | GPACQKWMQTCDRNRKCCEGFVCTLWCRKKLW-OH (cysteine pairing not given here) [NV1D3541] | – | improved selectivity | –
38 | GPQCQKWMQTCDRERKCCQGFVCTLWCRKKLW-OH (cysteine pairing not given here) [NV1D3388] | – | improved selectivity | –
39 | GPRCQKWMQTCDAERKCCEGFVCRLWCKKKLW-OH (cysteine pairing not given here) [NV1D2772] | – | improved selectivity | –
